Experimental data reported in the supplement of paper PMC12463676, “Small-molecule dissolution of stress granules by redox modulation benefits ALS models” (Nature Chemical Biology, 2025).

Tests used:
lipoamide = compound: NC(=O)CCCCC1CCSS1 [lipoamide]; assay: thermal stability z-score vs DMSO; higher = more thermally stabilized by treatment; conditions: HeLa, lipoamide concentration 100 µM
Procedure: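 Cellular thermal proteome profiling in HeLa cells. Cells were treated with 100 µM lipoamide for 1 h, with or without 1 mM arsenate for a further 1 h, then heated to ten temperatures (37-66.3 °C), and soluble protein was quantified by TMT mass spectrometry relative to 0.1% DMSO controls. The thermal stability score (sum of log2 fold changes minus the abundance score) was transformed to a z-score; mean of n = 3 experiments.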

potassium arsenate = compound: O=[As]([O-])(O)O.[K+] [potassium arsenate]; assay: as above; conditions: HeLa; arsenate concentration 1 mM
Procedure: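 Cellular thermal proteome profiling in HeLa cells treated with 1 mM arsenate for 1 h (DMSO pretreatment), heated to ten temperatures (37-66.3 °C). Soluble protein was quantified by TMT mass spectrometry relative to DMSO controls; the thermal stability score was transformed to a z-score; mean of n = 3 experiments.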

[1] = arsenate co-treatment: 1 mM arsenate 1 h
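Note: each temperature applied for 3 min, abundance score taken as mean log2 fold change at the two lowest temperatures, z-score obtained by mean subtraction and division by SD.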

Chain of UniProt Q8N490 (Q8N490 whole entry): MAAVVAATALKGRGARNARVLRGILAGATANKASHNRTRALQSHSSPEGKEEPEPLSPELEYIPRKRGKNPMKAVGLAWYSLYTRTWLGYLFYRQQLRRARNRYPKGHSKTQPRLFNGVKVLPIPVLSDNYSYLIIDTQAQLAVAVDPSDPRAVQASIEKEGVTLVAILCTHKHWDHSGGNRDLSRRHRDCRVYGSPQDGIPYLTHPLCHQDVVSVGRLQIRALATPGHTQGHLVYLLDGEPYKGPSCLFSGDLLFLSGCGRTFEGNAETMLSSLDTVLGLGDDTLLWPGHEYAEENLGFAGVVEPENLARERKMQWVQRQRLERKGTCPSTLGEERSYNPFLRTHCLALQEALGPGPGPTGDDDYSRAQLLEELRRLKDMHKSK
Chain of UniProt Q9NP80 (Q9NP80 whole entry): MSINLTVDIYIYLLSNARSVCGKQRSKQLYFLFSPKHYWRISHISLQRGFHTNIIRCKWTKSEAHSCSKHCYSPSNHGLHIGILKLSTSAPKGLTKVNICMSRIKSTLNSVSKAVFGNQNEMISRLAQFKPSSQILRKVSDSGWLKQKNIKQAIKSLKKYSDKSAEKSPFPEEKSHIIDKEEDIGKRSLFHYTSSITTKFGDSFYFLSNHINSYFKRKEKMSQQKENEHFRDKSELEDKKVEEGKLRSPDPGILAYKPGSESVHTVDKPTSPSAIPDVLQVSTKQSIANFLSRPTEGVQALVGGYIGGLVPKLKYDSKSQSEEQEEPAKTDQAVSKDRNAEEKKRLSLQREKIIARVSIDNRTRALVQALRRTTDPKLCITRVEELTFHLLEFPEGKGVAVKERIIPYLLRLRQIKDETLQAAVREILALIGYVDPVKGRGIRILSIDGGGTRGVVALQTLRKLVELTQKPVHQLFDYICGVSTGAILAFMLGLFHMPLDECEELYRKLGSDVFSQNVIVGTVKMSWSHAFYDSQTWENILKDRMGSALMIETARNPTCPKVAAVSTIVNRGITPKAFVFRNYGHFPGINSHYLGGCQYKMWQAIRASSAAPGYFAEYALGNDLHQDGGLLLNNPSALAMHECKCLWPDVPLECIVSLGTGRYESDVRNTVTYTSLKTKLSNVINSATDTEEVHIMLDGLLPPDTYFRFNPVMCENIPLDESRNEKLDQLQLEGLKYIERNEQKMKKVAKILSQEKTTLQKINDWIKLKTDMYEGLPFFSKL
Chain of UniProt Q9NRX1 (Q9NRX1 whole entry): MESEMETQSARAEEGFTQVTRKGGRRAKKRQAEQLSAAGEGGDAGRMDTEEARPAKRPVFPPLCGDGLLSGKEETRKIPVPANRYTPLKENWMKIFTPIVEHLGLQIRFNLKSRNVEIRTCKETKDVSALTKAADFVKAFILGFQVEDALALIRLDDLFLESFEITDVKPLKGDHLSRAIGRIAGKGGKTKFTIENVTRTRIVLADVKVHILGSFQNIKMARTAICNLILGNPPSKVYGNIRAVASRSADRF
Chain of UniProt Q9Y4D7 (Q9Y4D7 whole entry): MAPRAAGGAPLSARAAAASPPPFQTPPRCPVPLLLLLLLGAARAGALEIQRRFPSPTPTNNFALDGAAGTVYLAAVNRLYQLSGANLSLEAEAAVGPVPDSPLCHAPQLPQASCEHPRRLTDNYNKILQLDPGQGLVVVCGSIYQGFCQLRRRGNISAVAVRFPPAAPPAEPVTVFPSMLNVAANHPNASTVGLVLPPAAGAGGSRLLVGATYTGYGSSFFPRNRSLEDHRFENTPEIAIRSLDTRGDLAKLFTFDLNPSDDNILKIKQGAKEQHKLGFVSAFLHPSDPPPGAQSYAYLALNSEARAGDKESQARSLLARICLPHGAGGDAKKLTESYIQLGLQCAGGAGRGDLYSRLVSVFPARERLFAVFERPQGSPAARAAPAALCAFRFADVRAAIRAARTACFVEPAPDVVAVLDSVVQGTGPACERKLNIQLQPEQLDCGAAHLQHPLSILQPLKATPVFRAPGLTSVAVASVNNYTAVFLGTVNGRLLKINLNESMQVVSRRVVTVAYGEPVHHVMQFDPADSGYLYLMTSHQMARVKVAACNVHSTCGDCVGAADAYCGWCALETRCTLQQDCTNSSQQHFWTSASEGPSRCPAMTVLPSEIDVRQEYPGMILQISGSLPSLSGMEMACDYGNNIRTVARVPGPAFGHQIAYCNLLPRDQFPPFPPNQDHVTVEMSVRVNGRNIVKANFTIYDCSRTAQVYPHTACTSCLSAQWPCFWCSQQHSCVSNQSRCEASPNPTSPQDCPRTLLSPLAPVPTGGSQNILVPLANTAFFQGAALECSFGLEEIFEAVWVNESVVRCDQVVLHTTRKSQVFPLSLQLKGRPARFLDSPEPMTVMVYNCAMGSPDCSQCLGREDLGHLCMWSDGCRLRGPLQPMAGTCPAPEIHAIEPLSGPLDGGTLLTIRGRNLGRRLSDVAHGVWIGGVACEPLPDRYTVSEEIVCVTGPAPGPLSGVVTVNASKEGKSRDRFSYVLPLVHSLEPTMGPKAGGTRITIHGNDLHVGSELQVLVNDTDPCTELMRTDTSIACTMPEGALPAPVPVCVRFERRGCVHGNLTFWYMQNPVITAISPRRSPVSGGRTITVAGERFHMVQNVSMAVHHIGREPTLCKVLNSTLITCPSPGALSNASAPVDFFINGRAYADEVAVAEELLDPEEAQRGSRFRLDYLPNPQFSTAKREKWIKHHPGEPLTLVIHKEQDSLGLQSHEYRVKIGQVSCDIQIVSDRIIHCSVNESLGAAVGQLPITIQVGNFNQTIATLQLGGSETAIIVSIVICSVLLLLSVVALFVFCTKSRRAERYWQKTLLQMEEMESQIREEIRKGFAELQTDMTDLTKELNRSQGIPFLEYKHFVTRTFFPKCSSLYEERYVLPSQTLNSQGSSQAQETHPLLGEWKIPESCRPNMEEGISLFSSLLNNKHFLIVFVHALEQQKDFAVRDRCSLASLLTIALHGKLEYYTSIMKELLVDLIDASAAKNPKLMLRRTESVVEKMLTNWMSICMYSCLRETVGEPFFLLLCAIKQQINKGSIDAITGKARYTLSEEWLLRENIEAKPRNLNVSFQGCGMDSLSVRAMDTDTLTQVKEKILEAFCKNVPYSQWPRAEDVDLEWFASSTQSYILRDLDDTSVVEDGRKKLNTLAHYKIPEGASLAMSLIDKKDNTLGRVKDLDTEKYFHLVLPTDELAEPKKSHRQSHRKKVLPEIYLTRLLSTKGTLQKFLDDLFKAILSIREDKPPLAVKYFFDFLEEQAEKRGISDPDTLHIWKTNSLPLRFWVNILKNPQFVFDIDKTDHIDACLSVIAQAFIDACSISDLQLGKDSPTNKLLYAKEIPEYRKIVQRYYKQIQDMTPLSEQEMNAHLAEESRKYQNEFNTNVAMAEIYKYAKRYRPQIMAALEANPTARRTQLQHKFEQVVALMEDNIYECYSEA
Chain of UniProt Q9P215 (Q9P215 whole entry): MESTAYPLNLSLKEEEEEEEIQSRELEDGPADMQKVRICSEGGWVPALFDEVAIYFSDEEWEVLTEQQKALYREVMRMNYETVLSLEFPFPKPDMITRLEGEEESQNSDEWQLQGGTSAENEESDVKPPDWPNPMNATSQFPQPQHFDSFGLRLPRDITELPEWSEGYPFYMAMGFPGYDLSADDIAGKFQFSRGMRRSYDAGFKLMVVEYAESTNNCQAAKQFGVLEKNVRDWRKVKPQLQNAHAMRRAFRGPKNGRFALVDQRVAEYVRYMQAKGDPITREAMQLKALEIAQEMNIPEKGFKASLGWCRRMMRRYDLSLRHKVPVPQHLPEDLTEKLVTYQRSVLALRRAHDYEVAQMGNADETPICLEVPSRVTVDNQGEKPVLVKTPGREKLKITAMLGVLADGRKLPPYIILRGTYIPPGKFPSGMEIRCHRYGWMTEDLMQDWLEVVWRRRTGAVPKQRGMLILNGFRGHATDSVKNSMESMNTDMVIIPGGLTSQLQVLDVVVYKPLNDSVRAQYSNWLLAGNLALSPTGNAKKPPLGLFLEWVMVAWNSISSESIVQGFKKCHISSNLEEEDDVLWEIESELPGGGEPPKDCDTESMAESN
Chain of UniProt O00469 (O00469 whole entry): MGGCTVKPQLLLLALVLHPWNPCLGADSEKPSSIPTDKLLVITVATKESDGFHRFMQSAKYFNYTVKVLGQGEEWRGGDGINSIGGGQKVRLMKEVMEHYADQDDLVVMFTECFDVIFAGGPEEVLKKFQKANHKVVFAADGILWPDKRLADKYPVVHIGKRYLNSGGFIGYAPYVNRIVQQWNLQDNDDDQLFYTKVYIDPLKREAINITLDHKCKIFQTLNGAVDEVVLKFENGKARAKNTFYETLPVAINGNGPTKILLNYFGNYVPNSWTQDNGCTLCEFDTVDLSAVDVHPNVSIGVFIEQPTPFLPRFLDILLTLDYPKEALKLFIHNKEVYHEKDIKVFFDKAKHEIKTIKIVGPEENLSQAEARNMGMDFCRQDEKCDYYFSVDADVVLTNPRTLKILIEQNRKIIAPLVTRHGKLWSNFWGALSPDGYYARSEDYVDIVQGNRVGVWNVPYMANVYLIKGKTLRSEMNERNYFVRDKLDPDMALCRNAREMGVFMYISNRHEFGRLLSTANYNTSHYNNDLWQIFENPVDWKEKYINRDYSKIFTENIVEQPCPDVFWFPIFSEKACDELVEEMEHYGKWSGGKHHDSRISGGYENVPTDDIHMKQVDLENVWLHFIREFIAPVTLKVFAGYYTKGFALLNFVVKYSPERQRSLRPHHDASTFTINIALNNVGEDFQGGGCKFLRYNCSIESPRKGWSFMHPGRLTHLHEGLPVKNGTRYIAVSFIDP
Chain of UniProt Q9HBL7 (Q9HBL7 whole entry): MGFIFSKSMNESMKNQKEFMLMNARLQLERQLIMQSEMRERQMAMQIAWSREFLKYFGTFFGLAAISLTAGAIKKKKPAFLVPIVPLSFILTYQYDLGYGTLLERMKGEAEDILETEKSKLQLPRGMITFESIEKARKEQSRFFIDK
Chain of UniProt Q6P1K2 (Q6P1K2 whole entry): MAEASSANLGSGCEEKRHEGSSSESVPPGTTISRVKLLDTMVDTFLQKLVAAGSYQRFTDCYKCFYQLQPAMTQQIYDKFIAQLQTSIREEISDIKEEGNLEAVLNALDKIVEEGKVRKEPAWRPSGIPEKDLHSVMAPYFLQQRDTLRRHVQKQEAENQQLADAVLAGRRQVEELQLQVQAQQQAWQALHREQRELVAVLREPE

Target PLEKHA2 (UniProt Q9HB19) has a thermal stability z-score (lipoamide; [1]) of -0.216, a thermal stability z-score (lipoamide; arsenate co-treatment: none) of -0.168 and a thermal stability z-score (potassium arsenate) of -0.321.
PLEKHA5 (UniProt Q9HAU0) gave a thermal stability z-score (lipoamide; [1]) of 0.191, a thermal stability z-score (lipoamide; arsenate co-treatment: none) of 0.254 and a thermal stability z-score (potassium arsenate) of 0.0794.
PLEKHB2 (UniProt Q96CS7) was tested, and the thermal stability z-score (lipoamide; [1]) was -0.698, the thermal stability z-score (lipoamide; arsenate co-treatment: none) was -0.101 and the thermal stability z-score (potassium arsenate) was 0.675.
PLEKHF1 (UniProt Q96S99) gave a thermal stability z-score (lipoamide; [1]) of -0.218, a thermal stability z-score (lipoamide; arsenate co-treatment: none) of -0.0271 and a thermal stability z-score (potassium arsenate) of -0.0692.
PLEKHF2 (UniProt Q9H8W4) was tested, and the thermal stability z-score (lipoamide; [1]) was -0.1, the thermal stability z-score (lipoamide; arsenate co-treatment: none) was -0.117 and the thermal stability z-score (potassium arsenate) was -0.196.
PLEKHO2 (UniProt Q8TD55) was tested, and the thermal stability z-score (lipoamide; [1]) was 0.146, the thermal stability z-score (lipoamide; arsenate co-treatment: none) was 0.015 and the thermal stability z-score (potassium arsenate) was -0.257.
PLGRKT (UniProt Q9HBL7) gave a thermal stability z-score (lipoamide; [1]) of 0.684, a thermal stability z-score (lipoamide; arsenate co-treatment: none) of 0.147 and a thermal stability z-score (potassium arsenate) of 0.783.
With PLIN2 (UniProt Q99541) the thermal stability z-score (lipoamide; [1]) was 0.587, the thermal stability z-score (lipoamide; arsenate co-treatment: none) was 0.338 and the thermal stability z-score (potassium arsenate) was 2.1.
PLIN3 (UniProt O60664) gave a thermal stability z-score (lipoamide; [1]) of 0.559, a thermal stability z-score (lipoamide; arsenate co-treatment: none) of 0.461 and a thermal stability z-score (potassium arsenate) of 0.704.
PLIN4 (UniProt Q96Q06) was tested, and the thermal stability z-score (lipoamide; [1]) was 0.188, the thermal stability z-score (lipoamide; arsenate co-treatment: none) was 0.324 and the thermal stability z-score (potassium arsenate) was 0.741.
PLK1 (UniProt P53350) was tested, and the thermal stability z-score (lipoamide; [1]) was -0.0395, the thermal stability z-score (lipoamide; arsenate co-treatment: none) was -0.233 and the thermal stability z-score (potassium arsenate) was -0.584.
Work on PLOD1 (UniProt Q02809) yielded a thermal stability z-score (lipoamide; [1]) of -4.26, a thermal stability z-score (lipoamide; arsenate co-treatment: none) of -3.77 and a thermal stability z-score (potassium arsenate) of 1.2.
With PLOD2 (UniProt O00469) the thermal stability z-score (lipoamide; [1]) was -3.92, the thermal stability z-score (lipoamide; arsenate co-treatment: none) was -3.35 and the thermal stability z-score (potassium arsenate) was 0.877.
PLOD3 (UniProt O60568) gave a thermal stability z-score (lipoamide; [1]) of -5.29, a thermal stability z-score (lipoamide; arsenate co-treatment: none) of -4.8 and a thermal stability z-score (potassium arsenate) of 0.333.
With PLPP1 (UniProt O14494) the thermal stability z-score (lipoamide; [1]) was -0.53, the thermal stability z-score (lipoamide; arsenate co-treatment: none) was 0.262 and the thermal stability z-score (potassium arsenate) was 0.324.
For PLPP2 (UniProt O43688), the thermal stability z-score (lipoamide; [1]) was -0.387, the thermal stability z-score (lipoamide; arsenate co-treatment: none) was -0.14 and the thermal stability z-score (potassium arsenate) was -0.114.
Target PLPP3 (UniProt O14495) has a thermal stability z-score (lipoamide; [1]) of 0.394, a thermal stability z-score (lipoamide; arsenate co-treatment: none) of 0.448 and a thermal stability z-score (potassium arsenate) of 0.384.
PLRG1 (UniProt O43660) gave a thermal stability z-score (lipoamide; [1]) of 1.67, a thermal stability z-score (lipoamide; arsenate co-treatment: none) of -0.0202 and a thermal stability z-score (potassium arsenate) of -0.346.
PLS1 (UniProt Q14651) was tested, and the thermal stability z-score (lipoamide; [1]) was 0.258, the thermal stability z-score (lipoamide; arsenate co-treatment: none) was 0.506 and the thermal stability z-score (potassium arsenate) was -0.0678.
Target PLS3 (UniProt P13797) has a thermal stability z-score (lipoamide; [1]) of 0.368, a thermal stability z-score (lipoamide; arsenate co-treatment: none) of 0.603 and a thermal stability z-score (potassium arsenate) of -0.117.
PLXNA1 (UniProt Q9UIW2) showed a thermal stability z-score (lipoamide; [1]) of 0.316, a thermal stability z-score (lipoamide; arsenate co-treatment: none) of -0.385 and a thermal stability z-score (potassium arsenate) of -0.00413.
In the case of PLXNA2 (UniProt O75051), the thermal stability z-score (lipoamide; [1]) is reported as 0.937, the thermal stability z-score (lipoamide; arsenate co-treatment: none) is reported as 1.3 and the thermal stability z-score (potassium arsenate) is reported as -0.219.
PLXNB2 (UniProt O15031) gave a thermal stability z-score (lipoamide; [1]) of 0.453, a thermal stability z-score (lipoamide; arsenate co-treatment: none) of 0.113 and a thermal stability z-score (potassium arsenate) of -0.338.
PLXND1 (UniProt Q9Y4D7) gave a thermal stability z-score (lipoamide; [1]) of -0.194, a thermal stability z-score (lipoamide; arsenate co-treatment: none) of -0.712 and a thermal stability z-score (potassium arsenate) of 0.534.
With PM20D2 (UniProt Q8IYS1) the thermal stability z-score (lipoamide; [1]) was 0.623, the thermal stability z-score (lipoamide; arsenate co-treatment: none) was 1.29 and the thermal stability z-score (potassium arsenate) was 1.81.
PMF1 (UniProt Q6P1K2) showed a thermal stability z-score (lipoamide; [1]) of 0.0314, a thermal stability z-score (lipoamide; arsenate co-treatment: none) of -0.0395 and a thermal stability z-score (potassium arsenate) of 0.367.
For PML (UniProt P29590), the thermal stability z-score (lipoamide; [1]) was 1.95, the thermal stability z-score (lipoamide; arsenate co-treatment: none) was 0.537 and the thermal stability z-score (potassium arsenate) was 5.01.
PMM1 (UniProt Q92871) showed a thermal stability z-score (lipoamide; [1]) of -0.14, a thermal stability z-score (lipoamide; arsenate co-treatment: none) of 0.072 and a thermal stability z-score (potassium arsenate) of 0.274.
PMM2 (UniProt O15305) showed a thermal stability z-score (lipoamide; [1]) of -0.186, a thermal stability z-score (lipoamide; arsenate co-treatment: none) of 0.197 and a thermal stability z-score (potassium arsenate) of 1.4.
PMPCA (UniProt Q10713) gave a thermal stability z-score (lipoamide; [1]) of -0.137, a thermal stability z-score (lipoamide; arsenate co-treatment: none) of -0.112 and a thermal stability z-score (potassium arsenate) of 0.0736.
PMPCB (UniProt O75439) gave a thermal stability z-score (lipoamide; [1]) of 0.254, a thermal stability z-score (lipoamide; arsenate co-treatment: none) of 0.207 and a thermal stability z-score (potassium arsenate) of 0.353.
PMS1 (UniProt P54277) showed a thermal stability z-score (lipoamide; [1]) of -0.133, a thermal stability z-score (lipoamide; arsenate co-treatment: none) of -0.0146 and a thermal stability z-score (potassium arsenate) of -0.486.
PMS2 (UniProt P54278) showed a thermal stability z-score (lipoamide; [1]) of -0.198, a thermal stability z-score (lipoamide; arsenate co-treatment: none) of -0.101 and a thermal stability z-score (potassium arsenate) of -0.0209.
PMVK (UniProt Q15126) was tested, and the thermal stability z-score (lipoamide; [1]) was -0.641, the thermal stability z-score (lipoamide; arsenate co-treatment: none) was 0.0911 and the thermal stability z-score (potassium arsenate) was 0.0469.
PNISR (UniProt Q8TF01) showed a thermal stability z-score (lipoamide; [1]) of 1.06, a thermal stability z-score (lipoamide; arsenate co-treatment: none) of 0.149 and a thermal stability z-score (potassium arsenate) of -0.509.
With PNKD (UniProt Q8N490) the thermal stability z-score (lipoamide; [1]) was 0.175, the thermal stability z-score (lipoamide; arsenate co-treatment: none) was 0.758 and the thermal stability z-score (potassium arsenate) was 0.929.
For PNKP (UniProt Q96T60), the thermal stability z-score (lipoamide; [1]) was -0.0218, the thermal stability z-score (lipoamide; arsenate co-treatment: none) was -0.0196 and the thermal stability z-score (potassium arsenate) was -0.329.
For PNN (UniProt Q9H307), the thermal stability z-score (lipoamide; [1]) was 1.03, the thermal stability z-score (lipoamide; arsenate co-treatment: none) was 0.507 and the thermal stability z-score (potassium arsenate) was -0.467.
PNO1 (UniProt Q9NRX1) was tested, and the thermal stability z-score (lipoamide; [1]) was 0.465, the thermal stability z-score (lipoamide; arsenate co-treatment: none) was 0.362 and the thermal stability z-score (potassium arsenate) was -0.698.
In the case of PNP (UniProt P00491), the thermal stability z-score (lipoamide; [1]) is reported as 0.446, the thermal stability z-score (lipoamide; arsenate co-treatment: none) is reported as 0.411 and the thermal stability z-score (potassium arsenate) is reported as 0.178.
In the case of PNPLA4 (UniProt P41247), the thermal stability z-score (lipoamide; [1]) is reported as 0.634, the thermal stability z-score (lipoamide; arsenate co-treatment: none) is reported as 0.101 and the thermal stability z-score (potassium arsenate) is reported as 1.28.
Work on PNPLA6 (UniProt Q8IY17) yielded a thermal stability z-score (lipoamide; [1]) of 0.758, a thermal stability z-score (lipoamide; arsenate co-treatment: none) of 0.548 and a thermal stability z-score (potassium arsenate) of 0.246.
For PNPLA8 (UniProt Q9NP80), the thermal stability z-score (lipoamide; [1]) was 0.00209, the thermal stability z-score (lipoamide; arsenate co-treatment: none) was 0.148 and the thermal stability z-score (potassium arsenate) was -0.332.
PNPO (UniProt Q9NVS9) gave a thermal stability z-score (lipoamide; [1]) of 0.101, a thermal stability z-score (lipoamide; arsenate co-treatment: none) of 0.677 and a thermal stability z-score (potassium arsenate) of -0.734.
Target PNPT1 (UniProt Q8TCS8) has a thermal stability z-score (lipoamide; [1]) of -0.261, a thermal stability z-score (lipoamide; arsenate co-treatment: none) of -0.271 and a thermal stability z-score (potassium arsenate) of 0.418.
Target PODXL (UniProt O00592) has a thermal stability z-score (lipoamide; [1]) of 0.0978, a thermal stability z-score (lipoamide; arsenate co-treatment: none) of 0.132 and a thermal stability z-score (potassium arsenate) of 0.395.
For POFUT1 (UniProt Q9H488), the thermal stability z-score (lipoamide; [1]) was -3.78, the thermal stability z-score (lipoamide; arsenate co-treatment: none) was -3.17 and the thermal stability z-score (potassium arsenate) was 1.06.
In the case of POFUT2 (UniProt Q9Y2G5), the thermal stability z-score (lipoamide; [1]) is reported as -1.74, the thermal stability z-score (lipoamide; arsenate co-treatment: none) is reported as -2.4 and the thermal stability z-score (potassium arsenate) is reported as -0.177.
With POGK (UniProt Q9P215) the thermal stability z-score (lipoamide; [1]) was 0.0568, the thermal stability z-score (lipoamide; arsenate co-treatment: none) was 0.107 and the thermal stability z-score (potassium arsenate) was 0.0895.
POGLUT1 (UniProt Q8NBL1) gave a thermal stability z-score (lipoamide; [1]) of -3.26, a thermal stability z-score (lipoamide; arsenate co-treatment: none) of -3.23 and a thermal stability z-score (potassium arsenate) of 1.16.
For POGZ (UniProt Q7Z3K3), the thermal stability z-score (lipoamide; [1]) was -0.198, the thermal stability z-score (lipoamide; arsenate co-treatment: none) was 0.0592 and the thermal stability z-score (potassium arsenate) was -0.422.
Work on POLA1 (UniProt P09884) yielded a thermal stability z-score (lipoamide; [1]) of -0.387, a thermal stability z-score (lipoamide; arsenate co-treatment: none) of 0.167 and a thermal stability z-score (potassium arsenate) of -0.306.
POLA2 (UniProt Q14181) was tested, and the thermal stability z-score (lipoamide; [1]) was -0.305, the thermal stability z-score (lipoamide; arsenate co-treatment: none) was -0.0588 and the thermal stability z-score (potassium arsenate) was -0.183.
POLB (UniProt P06746) was tested, and the thermal stability z-score (lipoamide; [1]) was -0.0159, the thermal stability z-score (lipoamide; arsenate co-treatment: none) was -0.17 and the thermal stability z-score (potassium arsenate) was -0.111.
POLD1 (UniProt P28340) gave a thermal stability z-score (lipoamide; [1]) of 0.0404, a thermal stability z-score (lipoamide; arsenate co-treatment: none) of -0.203 and a thermal stability z-score (potassium arsenate) of -0.1.
